Tested on: 521955-158-R2-J5-PDC complex spheroid viability
Assay: Anticancer human tumor 521955-158-R2-J5-PDC patient-derived pancreatic carcinoma cell line growth inhibition [GQUAD]
Details: for IC50: curve of first compound; for viability, T/C: stronger effect = lower value
Method in brief: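 Multi-cell-type spheroids of tumor cells with HUVEC and mesenchymal stem cells, treated with drug combinations. Concentrations descend in half-log steps from near clinical Cmax, or from 10 microM where Cmax is unknown; viability read-out.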

[1] = second compound 0.0316 µM, first compound 0.0316 µM
[2] = second compound 0.0316 µM, first compound 0.316 µM
[3] = second compound 0.1 µM, first compound 0.0316 µM
[4] = second compound 0.1 µM, first compound 0.316 µM
[5] = second compound 0.316 µM, first compound 0.0316 µM
[6] = second compound 0.316 µM, first compound 0.316 µM
[7] = second compound 1 µM, first compound 0.0316 µM
[8] = second compound 1 µM, first compound 0.316 µM
[9] = second compound 3.16 µM, first compound 0.0316 µM
[10] = second compound 3.16 µM, first compound 0.316 µM
[11] = second compound 10 µM, first compound 0.0316 µM
[12] = second compound 10 µM, first compound 0.316 µM
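Also: spheroids exposed to agents for one week before reading.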
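For viability, T/C in this document: 100% = DMSO vehicle control viability.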

## COc1ccc([C@@H](O)c2cc(-c3ncnc4cc(N5CCOCC5)ccc34)c(F)cc2Cl)nn1 + Cc1[nH]c2ccc(F)cc2c1-c1nc2c3cccnc3c3ncccc3c2[nH]1
Second compound 0.0316 µM
  IC50: 3520 nM
Second compound 0.1 µM
  IC50: 2690 nM
Second compound 0.316 µM
  IC50: 3700 nM
Second compound 1 µM
  IC50: 3670 nM
Second compound 3.16 µM
  IC50: 1960 nM
Second compound 10 µM
  IC50: 3080 nM
[1]
  viability, T/C: 93%
Second compound 0.0316 µM, first compound 0.1 µM
  viability, T/C: 92.3%
[2]
  viability, T/C: 73.7%
Second compound 0.0316 µM, first compound 1 µM
  viability, T/C: 62.3%
Second compound 0.0316 µM, first compound 3.16 µM
  viability, T/C: 56%
Second compound 0.0316 µM, first compound 10 µM
  viability, T/C: 34.5%
[3]
  viability, T/C: 88.6%
Second compound 0.1 µM, first compound 0.1 µM
  viability, T/C: 93%
[4]
  viability, T/C: 69.7%
Second compound 0.1 µM, first compound 1 µM
  viability, T/C: 66.7%
Second compound 0.1 µM, first compound 3.16 µM
  viability, T/C: 47.1%
Second compound 0.1 µM, first compound 10 µM
  viability, T/C: 34.1%
[5]
  viability, T/C: 82.3%
Second compound 0.316 µM, first compound 0.1 µM
  viability, T/C: 95.6%
[6]
  viability, T/C: 83.2%
Second compound 0.316 µM, first compound 1 µM
  viability, T/C: 68.6%
Second compound 0.316 µM, first compound 3.16 µM
  viability, T/C: 54.3%
Second compound 0.316 µM, first compound 10 µM
  viability, T/C: 34.9%
[7]
  viability, T/C: 88.4%
Second compound 1 µM, first compound 0.1 µM
  viability, T/C: 112%
[8]
  viability, T/C: 88.5%
Second compound 1 µM, first compound 1 µM
  viability, T/C: 66.6%
Second compound 1 µM, first compound 3.16 µM
  viability, T/C: 58.4%
Second compound 1 µM, first compound 10 µM
  viability, T/C: 32.2%
[9]
  viability, T/C: 86.1%
Second compound 3.16 µM, first compound 0.1 µM
  viability, T/C: 90.5%
[10]
  viability, T/C: 75.9%
Second compound 3.16 µM, first compound 1 µM
  viability, T/C: 60.4%
Second compound 3.16 µM, first compound 3.16 µM
  viability, T/C: 43.3%
Second compound 3.16 µM, first compound 10 µM
  viability, T/C: 32.2%
[11]
  viability, T/C: 99.4%
Second compound 10 µM, first compound 0.1 µM
  viability, T/C: 88.6%
[12]
  viability, T/C: 74.9%
Second compound 10 µM, first compound 1 µM
  viability, T/C: 64.3%
Second compound 10 µM, first compound 3.16 µM
  viability, T/C: 54.6%
Second compound 10 µM, first compound 10 µM
  viability, T/C: 30.4%

## Cn1ncnc1[C@H]1c2n[nH]c(=O)c3cc(F)cc(c23)N[C@@H]1c1ccc(F)cc1 + Cc1[nH]c2ccc(F)cc2c1-c1nc2c3cccnc3c3ncccc3c2[nH]1
Second compound 0.0316 µM
  IC50: > 316 nM
Second compound 0.1 µM
  IC50: > 316 nM
Second compound 0.316 µM
  IC50: > 316 nM
Second compound 1 µM
  IC50: > 316 nM
Second compound 3.16 µM
  IC50: > 316 nM
Second compound 10 µM
  IC50: > 316 nM
Second compound 0.0316 µM, first compound 0.000999 µM
  viability, T/C: 95.7%
Second compound 0.0316 µM, first compound 0.00316 µM
  viability, T/C: 86.3%
Second compound 0.0316 µM, first compound 0.00999 µM
  viability, T/C: 93.5%
[1]
  viability, T/C: 91%
Second compound 0.0316 µM, first compound 0.0999 µM
  viability, T/C: 73.2%
[2]
  viability, T/C: 59.8%
Second compound 0.1 µM, first compound 0.000999 µM
  viability, T/C: 89.4%
Second compound 0.1 µM, first compound 0.00316 µM
  viability, T/C: 106%
Second compound 0.1 µM, first compound 0.00999 µM
  viability, T/C: 90.9%
[3]
  viability, T/C: 80.4%
Second compound 0.1 µM, first compound 0.0999 µM
  viability, T/C: 91.1%
[4]
  viability, T/C: 74.4%
Second compound 0.316 µM, first compound 0.000999 µM
  viability, T/C: 94.3%
Second compound 0.316 µM, first compound 0.00316 µM
  viability, T/C: 96%
Second compound 0.316 µM, first compound 0.00999 µM
  viability, T/C: 83.6%
[5]
  viability, T/C: 88.7%
Second compound 0.316 µM, first compound 0.0999 µM
  viability, T/C: 70.4%
[6]
  viability, T/C: 73.1%
Second compound 1 µM, first compound 0.000999 µM
  viability, T/C: 91.7%
Second compound 1 µM, first compound 0.00316 µM
  viability, T/C: 93.7%
Second compound 1 µM, first compound 0.00999 µM
  viability, T/C: 91%
[7]
  viability, T/C: 74.2%
Second compound 1 µM, first compound 0.0999 µM
  viability, T/C: 102%
[8]
  viability, T/C: 73.6%
Second compound 3.16 µM, first compound 0.000999 µM
  viability, T/C: 93%
Second compound 3.16 µM, first compound 0.00316 µM
  viability, T/C: 107%
Second compound 3.16 µM, first compound 0.00999 µM
  viability, T/C: 83.9%
[9]
  viability, T/C: 86.8%
Second compound 3.16 µM, first compound 0.0999 µM
  viability, T/C: 70.8%
[10]
  viability, T/C: 69.8%
Second compound 10 µM, first compound 0.000999 µM
  viability, T/C: 92.7%
Second compound 10 µM, first compound 0.00316 µM
  viability, T/C: 80.5%
Second compound 10 µM, first compound 0.00999 µM
  viability, T/C: 82.6%
[11]
  viability, T/C: 86.1%
Second compound 10 µM, first compound 0.0999 µM
  viability, T/C: 77.8%
[12]
  viability, T/C: 68.1%
